Reference: patent US10980866B2, “Alpha-1 anti-trypsin for treating liver diseases” (Hadasit Medical Research Services and Development Ltd., priority 2014, dated 2021)
“Also recorded” adds a separate entry of the source.

Columns and labels:
[1] = system: ConA-induced hepatitis mouse model; assay: Concanavalin A-induced hepatitis model, liver histology score (H&E); type: in vivo, mice (C57BL/6); details: 15 hours following ConA; for Infiltrating leukocytes (%) / Lymphocyte adhesion (%) / Necrotic lesions (%): histological score, mean ± SD, AAT 0.35 mg/mouse IP, Dexamethasone 0.35 mg/mouse
Protocol: (§1) Animals—Male C57BL/6 mice (11-12 weeks old) were obtained from Harlan Laboratories (Jerusalem, Israel) and were maintained in the Animal Core of the Hadassah-Hebrew University Medical School. The mice received standard laboratory food and water ad libitum and were housed in a 12-hour light/dark cycle. All animal experiments were performed according to the guidelines and with the approval of the Hebrew University-Hadassah Institutional Committee for the Care and Use of Laboratory Animals.
(§2) Concanavalin A-induced hepatitis model—Concanavalin A (ConA, MP Biomedicals, USA) was dissolved in a solution consisting of 50 mM Tris pH 7, 150 mM NaCl, and 4 mM CaCl2 and injected into the tail vein at a dose of 500 μg/mouse (15 mg/kg) in 250 μl. Mice were sacrificed 15 hours following ConA injection. Mice (n=5-6 mice per group) were administered orally or intraperitoneally (IP), as indicated, DDW (control); Dexamethasone (0.35 mg/mouse, control); or alpha-1 anti-trypsin (AAT, Sigma A-9024) at a dose of 0.2, 0.35, 1.0 or 2.0 mg per mouse, 2 hours prior ConA treatment.
Histology—Mice were sacrificed at the indicated times and their livers were harvested. Paraffin-embedded liver sections were prepared from and sliced into 4-5 μm-thick sections and stained with hematoxylin-eosin (H&E). The sections were scored according to the extent of liver damage using a previously described method^13, 14 with the following parameters: lymphocyte adhesion to hepatic and portal veins and sinusoids, the number of infiltrating leukocytes into the liver parenchyma, and the number of necrotic lesions (all per 10× high-power field).

[2] = target: 1-AZT, a misfolded but functionally active mutant of α1-antitrypsin (Homo sapiens, UniProt P01009, E366K); details: model cell culture system; cited from earlier work
Chain of 1-AZT, a misfolded but functionally active mutant of α1-antitrypsin (P01009 25-418 E366K): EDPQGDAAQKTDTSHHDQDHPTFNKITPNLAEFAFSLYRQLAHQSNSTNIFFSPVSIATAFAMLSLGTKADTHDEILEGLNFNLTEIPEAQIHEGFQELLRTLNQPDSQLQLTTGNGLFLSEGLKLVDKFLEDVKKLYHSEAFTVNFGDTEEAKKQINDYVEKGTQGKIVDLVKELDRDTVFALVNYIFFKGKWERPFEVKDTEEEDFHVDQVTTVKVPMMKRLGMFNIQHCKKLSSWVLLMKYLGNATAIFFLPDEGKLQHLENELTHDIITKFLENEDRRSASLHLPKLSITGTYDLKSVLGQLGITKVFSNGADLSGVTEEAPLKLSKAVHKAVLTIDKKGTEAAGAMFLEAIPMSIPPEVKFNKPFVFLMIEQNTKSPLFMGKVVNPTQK

[3] = system: APAP-mediated liver damage mouse model; assay: Acetaminophen-mediated hepatotoxicity model, serum liver enzymes; type: in vivo, mice (C57BL/6); details: 2 hours following APAP, 24 hours following APAP, vs control (DDW)
Protocol: as §1
Acetaminophen-mediated hepatotoxicity model—Acetaminophen (APAP)-mediated hepatotoxicity was induced in mice via oral administration of 4 mg APAP (Tiptipot, CST). Mice (n=5 mice per group) were administered IP DDW (control) or AAT at a dose of 0.25 or 0.5 mg per mouse, 2 hours following administration of APAP
(§3) Assessment of Liver toxicity—Serum was obtained from individual mice at the indicated times and the levels of aspartate aminotransferase (AST) and alanine aminotransferase (ALT) were determined using a standard automated analyzer.

[4] = system: ConA-induced hepatitis mouse model; assay: Concanavalin A-induced hepatitis model, serum liver enzymes (ALT, AST); type: in vivo, mice (C57BL/6)
Protocol: as §1, §2, §3

[5] = system: high fat diet (HFD) mouse model; assay: High fat diet (HFD) with or without methionine choline deficient diet (MCD) fatty liver model; type: in vivo, mice (C57Bl); details: Example 3
Protocol: The effect of AAT on fatty liver disease is assessed by determining liver toxicity in a high fat diet (HFD) with or without methionine choline deficient diet (MCD) mouse model.
Blood is taken from the tail vein at the indicated time points and analyzed for:
Mice are sacrificed 14 weeks following beginning of treatment and analyzed for: • Weight • Epididymal fat weight (eq to visceral fat in humans) • MRI—to look at steatosis • ALT, AST • Serum for cytokines-what cytokines: IL2, 6, 4, 5, 12, IFN (gamma), TNF and TGF. IL-10, il-4, il-13, mcp1, • Adipokine—adiponectin which is anti-inflammatory adipokine and visfalatin • CBC including eosinophils • FACS for subsets of T cells • Assessment of eotaxin levels in the liver and in the adipose tissue by mRNA • Collect serum for Lipidomics to be conducted by OWL in Spain • Collect serum for mRNA of lymphocytes, to be performed in the USA by Ilumina sequencing machines • Liver fat quantification • Liver biopsy followed by histological evaluation: • 1. H&E staining • 2. Fat staining (IHC): Oil-R-O (frozen sections) • X2 non stained slides (paraffin embedded) • Snap freeze −80, ×3 samples (from each animal). • Assessment of fibrosis based on staining

[6] = system: ConA-induced hepatitis mouse model; assay: Concanavalin A-induced hepatitis model, serum IFN-γ by ELISA; type: in vivo, mice (C57BL/6); details: 15 hours following ConA
Protocol: as §1, §2
Cytokine measurement—Serum IFN-γ levels were measured at the indicated times in each animal using a commercially available ELISA kit (Quantikine, R&D Systems, MN, USA) according to manufacturer's instructions.

[7] = AAT orally administered, 2 hours prior ConA, 15 hours following ConA

Row | Compound | Infiltrating leukocytes (%) [1] [%] | Lymphocyte adhesion (%) [1] [%] | Necrotic lesions (%) [1] [%] | secretion of 1-AZT [2] | serum levels of the AST liver enzyme ([3]; AAT 0.25 mg per mouse IP) | serum levels of the AST liver enzyme ([3]; AAT 0.5 mg per mouse IP) | serum levels of the ALT liver enzyme ([4]; AAT 0.35 mg per mouse IP, 2 hours prior ConA, 15 hours following ConA, p<0.005) | mice developing severe disease (severe hepatitis, serum ALT more than 1000 IU) ([4]; AAT 0.35 mg per mouse, compared to 100% in control (DDW) group, p<0.005) [%] | serum levels of the ALT liver enzyme ([4]; AAT 1 mg per mouse IP, 2 hours prior ConA, 15 hours following ConA, p<0.005) | ALT serum levels ([4]; AAT 2 mg per mouse IP, 2 hours prior ConA, 15 hours following ConA) | AST levels ([4]; AAT IP, 2 hours prior ConA, 15 hours following ConA (FIG. 2)) | number of mice developing severe disease (serum ALT more than 1000 IU) ([4]; AAT at all doses tested) | ALT levels [4, 7] | AST levels [4, 7] | overall effect on the ConA-induced hepatitis model ([4]; IP administration of AAT) | number of infiltrating leukocytes into the liver parenchyma (in words) ([1]; AAT 0.35 mg per mouse IP) | symptoms of fatty liver disease [5] | serum IFNγ levels ([6]; AAT 1.0 mg per mouse IP, p<0.005) | serum IFNγ levels ([6]; AAT high dose 2.0 mg per mouse) | serum IFNγ levels ([6]; AAT low dose 0.35 mg per mouse)
1 | C[C@@H]1C[C@H]2[C@@H]3CCC4=CC(=O)C=C[C@]4(C)[C@@]3(F)[C@@H](O)C[C@]2(C)[C@@]1(O)C(=O)CO [Dexamethasone, reference compound] | 0.58 ± 2.5 | 0.58 ± 2.5 | 0 | – | – | – | – | – | – | – | – | – | – | – | – | – | – | – | – | –
2 | O=C(O)CCCc1ccccc1 [PBA, 4-phenylbutyric acid] | – | – | – | marked increase | – | – | – | – | – | – | – | – | – | – | – | – | – | – | – | –
3 | alpha-1 anti-trypsin [AAT] | 2.45 ± 8.33 | 2.8 ± 11.89 | 1 ± 1.67 | – | decrease | decrease | Statistically significant reduction | 50 | Statistically significant reduction | no effect | corresponded to the ALT levels | reduced the number of mice developing severe disease | no effect | no effect | dose-dependent beneficial effect | significant improvement; also recorded: reduced leukocyte infiltration | ameliorated symptoms of fatty liver disease | significant reduction | no significant effect | no significant effect
